According to ChEMBL document CHEMBL4152255, “Functionalized spirooxindole-indolizine hybrids: Stereoselective green synthesis and evaluation of anti-inflammatory effect involving TNF-α and nitrite inhibition” (2018):

Experiments:
Format in all cases: functional
[1] = test system: Rattus norvegicus; assay: Anti-inflammatory activity against carrageenan-induced paw oedema in Wistar albino rat assessed as hind paw thickness at 50 mg/kg, po pretreated for 1 hr followed by carrageenan challenge measured after 5 hrs by caliper method (reference value: 8.37 +/- 0.64 millimeter)
[2] = test system: Rattus norvegicus; assay: Anti-inflammatory activity against carrageenan-induced paw oedema in Wistar albino rat assessed as hind paw thickness at 50 mg/kg, po pretreated for 1 hr followed by carrageenan challenge measured immediately by caliper method (reference value: 3.58 +/- 0.34 millimeter)
[3] = test system: Rattus norvegicus; assay: Anti-inflammatory activity against carrageenan-induced paw oedema in Wistar albino rat assessed as hind paw thickness at 50 mg/kg, po pretreated for 1 hr followed by carrageenan challenge measured after 3 hrs by caliper method (reference value: 8.45 +/- 0.64 millimeter)
[4] = test system: Mus musculus; assay: Antiinflammatory activity in mouse assessed as inhibition of croton oil-induced ear edema at 1 mg/ear administered topically pretreated for 1 hr followed by croton oil addition and measured after 4 hrs relative to control; set-up: scale not given: the % may be the effect or the level left
[5] = test system: Rattus norvegicus; assay: Anti-inflammatory activity against carrageenan-induced paw oedema in Wistar albino rat assessed as reduction in PGE2 level at 50 mg/kg, po pretreated for 1 hr followed by carrageenan challenge by ELISA relative to control; set-up: scale not given: the % may be the effect or the level left
[6] = test system: Rattus norvegicus; assay: Anti-inflammatory activity against carrageenan-induced paw oedema in Wistar albino rat assessed as reduction in TNFalpha level at 50 mg/kg, po pretreated for 1 hr followed by carrageenan challenge by ELISA relative to control; set-up: scale not given: the % may be the effect or the level left
[7] = test system: Rattus norvegicus; assay: Anti-inflammatory activity against carrageenan-induced paw oedema in Wistar albino rat assessed as reduction in hind paw thickness at 50 mg/kg, po pretreated for 1 hr followed by carrageenan challenge measured after 5 hrs by caliper method relative to control; set-up: scale not given: the % may be the effect or the level left
[8] = test system: Rattus norvegicus; assay: Anti-inflammatory activity against carrageenan-induced paw oedema in Wistar albino rat assessed as reduction in hind paw thickness at 50 mg/kg, po pretreated for 1 hr followed by carrageenan challenge measured after 3 hrs by caliper method relative to control; set-up: scale not given: the % may be the effect or the level left
[9] = test system: Rattus norvegicus; assay: Anti-inflammatory activity in Wistar albino rat assessed as inhibition of cotton pellet-induced granuloma at 50 mg/kg administered once daily for 7 days measured on day 8 relative to control; set-up: scale not given: the % may be the effect or the level left
[10] = test system: Rattus norvegicus; assay: Anti-inflammatory activity against carrageenan-induced paw oedema in Wistar albino rat assessed as reduction in nitrite level at 50 mg/kg, po pretreated for 1 hr followed by carrageenan challenge by Griess assay relative to control; set-up: scale not given: the % may be the effect or the level left
[11] = test system: Mus musculus; assay: Antiinflammatory activity in mouse assessed as inhibition of croton oil-induced ear edema at 0.5 mg/ear administered topically pretreated for 1 hr followed by croton oil addition and measured after 4 hrs relative to control; set-up: scale not given: the % may be the effect or the level left
[12] = test system: Rattus norvegicus; assay: Anti-inflammatory activity against carrageenan-induced paw oedema in Wistar albino rat assessed as reduction in nitrite level at 10 mg/kg, po pretreated for 1 hr followed by carrageenan challenge by Griess assay relative to control; set-up: scale not given: the % may be the effect or the level left
[13] = test system: Rattus norvegicus; assay: Anti-inflammatory activity against carrageenan-induced paw oedema in Wistar albino rat assessed as hind paw thickness at 10 mg/kg, po pretreated for 1 hr followed by carrageenan challenge measured after 3 hrs by caliper method (reference value: 8.45 +/- 0.64 millimeter)
[14] = test system: Rattus norvegicus; assay: Anti-inflammatory activity against carrageenan-induced paw oedema in Wistar albino rat assessed as hind paw thickness at 10 mg/kg, po pretreated for 1 hr followed by carrageenan challenge measured immediately by caliper method (reference value: 3.58 +/- 0.34 millimeter)
[15] = test system: Rattus norvegicus; assay: Anti-inflammatory activity against carrageenan-induced paw oedema in Wistar albino rat assessed as reduction in PGE2 level at 10 mg/kg, po pretreated for 1 hr followed by carrageenan challenge by ELISA relative to control; set-up: scale not given: the % may be the effect or the level left
[16] = test system: Rattus norvegicus; assay: Anti-inflammatory activity against carrageenan-induced paw oedema in Wistar albino rat assessed as reduction in TNFalpha level at 10 mg/kg, po pretreated for 1 hr followed by carrageenan challenge by ELISA relative to control; set-up: scale not given: the % may be the effect or the level left
[17] = test system: Rattus norvegicus; assay: Anti-inflammatory activity against carrageenan-induced paw oedema in Wistar albino rat assessed as hind paw thickness at 10 mg/kg, po pretreated for 1 hr followed by carrageenan challenge measured after 5 hrs by caliper method (reference value: 8.37 +/- 0.64 millimeter)
[18] = test system: Rattus norvegicus; assay: Anti-inflammatory activity in Wistar albino rat assessed as inhibition of cotton pellet-induced granuloma at 10 mg/kg administered once daily for 7 days measured on day 8 relative to control; set-up: scale not given: the % may be the effect or the level left

Compound | Activity [1] [mm] | Activity [2] [mm] | Activity [3] [mm] | also measured
O=C1/C(=C/c2ccc(F)cc2)CNCC12[C@@H](c1ccc(F)cc1)[C@@H]1CCCCN1[C@@]21C(=O)Nc2ccccc21 (some centres undefined) | 6.9 | 3.62 | 7.18 | –
O=C1/C(=C/c2ccc(Cl)cc2)CNCC12[C@@H](c1ccc(Cl)cc1)[C@@H]1CCCCN1[C@@]21C(=O)Nc2ccccc21 (some centres undefined) | 8 | 3.62 | 8.16 | –
Cc1ccc(/C=C2\CNCC3(C2=O)[C@@H](c2ccc(C)cc2)[C@@H]2CCCCN2[C@@]32C(=O)Nc3ccccc32)cc1 (some centres undefined) | 3.74 | 3.55 | 3.87 | Activity [4]: 47.53 - 54.53%; Activity [5]: 35.23%; Activity [6]: 36.23%; Activity [7]: 55.3%; Activity [8]: 54.07%; Activity [9]: 24.17 - 33.23%; Activity [10]: 42.99%
O=C1/C(=C/c2ccccc2Br)CNCC12[C@@H](c1ccccc1Br)[C@@H]1CCCCN1[C@@]21C(=O)Nc2ccccc21 (some centres undefined) | 6.2 | 3.54 | 7 | –
COc1ccc(/C=C2\CNCC3(C2=O)[C@@H](c2ccc(OC)cc2)[C@@H]2CCCCN2[C@@]32C(=O)Nc3ccccc32)cc1 (some centres undefined) | 3.72 | 3.58 | 3.75 | Activity [4]: 48.32 - 49.02%; Activity [5]: 34.1%; Activity [6]: 38.52%; Activity [7]: 55.54%; Activity [8]: 55.61%; Activity [9]: 32.48 - 37.21%; Activity [10]: 41.22%
O=C1/C(=C/c2ccccc2F)CNCC12[C@@H](c1ccccc1F)[C@@H]1CCCCN1[C@@]21C(=O)Nc2ccccc21 (some centres undefined) | 6.13 | 3.61 | 6.53 | –
Cc1ccccc1/C=C1\CNCC2(C1=O)[C@@H](c1ccccc1C)[C@@H]1CCCCN1[C@@]21C(=O)Nc2ccccc21 (some centres undefined) | 7.41 | 3.63 | 7.5 | –
O=C1/C(=C/c2ccccc2Cl)CNCC12[C@@H](c1ccccc1Cl)[C@@H]1CCCCN1[C@@]21C(=O)Nc2ccccc21 (some centres undefined) | 7.18 | 3.59 | 6.54 | –
O=C1/C(=C/c2ccc(Cl)cc2Cl)CNCC12[C@@H](c1ccc(Cl)cc1Cl)[C@@H]1CCCCN1[C@@]21C(=O)Nc2ccccc21 (some centres undefined) | 6.5 | 3.59 | 7.12 | –
COc1cccc(/C=C2\CNCC3(C2=O)[C@@H](c2cccc(OC)c2)[C@@H]2CCCCN2[C@@]32C(=O)Nc3ccccc32)c1 (some centres undefined) | 7.62 | 3.61 | 8.1 | –
COc1ccccc1/C=C1\CNCC2(C1=O)[C@@H](c1ccccc1OC)[C@@H]1CCCCN1[C@@]21C(=O)Nc2ccccc21 (some centres undefined) | 7 | 3.67 | 6.31 | –
O=C1/C(=C/c2ccccc2)CNCC12[C@@H](c1ccccc1)[C@@H]1CCCCN1[C@@]21C(=O)Nc2ccccc21 (some centres undefined) | 6.98 | 3.61 | 7.21 | –
O=C1/C(=C/c2ccc(Br)cc2)CNCC12[C@@H](c1ccc(Br)cc1)[C@@H]1CCCCN1[C@@]21C(=O)Nc2ccccc21 (some centres undefined) | 7.7 | 3.58 | 7.62 | –
Cc1cccc(/C=C2\CNCC3(C2=O)[C@@H](c2cccc(C)c2)[C@@H]2CCCCN2[C@@]32C(=O)Nc3ccccc32)c1 (some centres undefined) | 7.82 | 3.58 | 8.16 | –
COc1ccc2c(c1)c(CC(=O)O)c(C)n2C(=O)c1ccc(Cl)cc1 [INDOMETHACIN] | – | – | – | Activity [11]: 53.56%; Activity [12]: 41.64%; Activity [13]: 3.86 mm; Activity [14]: 3.61 mm; Activity [15]: 33.88%; Activity [16]: 37.13%; Activity [17]: 3.83 mm; Activity [18]: 39.7%
